Experiments:
T cells = test: Proliferation inhibition assay on T cells (PBMC, anti-CD3, IL-2, ATPlite); assay type: cell-based; details: Homo sapiens, T-cell; IL-2 10 ng/mL, 72 hours
Description: The following in vitro assay is to determine the activity of the compounds of the present invention for inhibiting the proliferation of T cells.
The activity is represented by the IC50 value.
The general procedures of the assay are given as follows: first, the PBMC cell line (purchased from Shanghai Blood Center) was centrifuged, the supernatant was removed, and the cells counted. […] Then, the cells were washed 3 times, resuspended, diluted to 2×10^6/mL, and then mixed with recombinant human IL-2 (purchased from Peprotech, Catalog Number: 200-02) to a concentration of 10 ng/mL, and cultured for another 3 days. The cells were washed again 3 times, and diluted to 5×10^5/mL. 80 μL of the cells were seeded in each well of a 96-well cell culture plate. […] To the control wells, 10 μL culture medium were added. The plate was placed in an incubator. After incubating for 1 hr, negative control wells were mixed with 10 μL of culture medium, and the rest of the wells were mixed with IL-2 to a concentration of 10 ng/mL, and incubated continuously for 72 hours. […] IC50 values were calculated from the data of inhibition rates at various concentrations of the test compounds.
(§1) The biological activity of the compounds of the present invention was tested by using the assay described above.

JAK1 kinase = JAK1 kinase (Homo sapiens (Human), UniProt P23458); test: Assay for inhibiting JAK1 kinase (in vitro kinase assay, HRP anti-phosphotyrosine antibody/TMB absorbance); assay type: biochemical; details: 20 μM ATP, 50 minutes at room temperature; read-out: IC50 (JAK1/Bio)
Description: In vitro activity of compounds of the present invention for inhibiting JAK1 kinase was determined by the following method.
IC50 values of test compounds was calculated from the data of the test compounds in inhibiting the activity of JAK1 kinase at different concentrations.

JAK2 kinase = JAK2 kinase (Homo sapiens (Human), UniProt O60674); test: Assay for inhibiting JAK2 kinase (in vitro kinase assay, HRP anti-phosphotyrosine antibody/TMB absorbance); assay type: biochemical; details: 20 μM ATP, 50 minutes at room temperature; read-out: IC50 (JAK2/Bio)
Description: In vitro activity of compounds of the present invention for inhibiting JAK2 kinase was determined by the following method.

[1] = system: human erythroid leukemia cell line TF-1; test: Proliferation inhibition assay on human erythroid leukemia cell line TF-1 mediated by IL-4 (Cell Counting Kit-8); assay type: cell-based; details: TF-1 cells, 10 ng/mL IL-4, 72 hours
Description: The following in vitro assay is to determine the activity of the compounds of the present invention for inhibiting the proliferation of human erythroid leukemia cell line TF-1.
The activity is represented by the IC50 value, which can not only reflect the activity of a test compound for inhibiting JAK2 and JAK3 kinase, but can also reflect the selectivity of a test compound for JAK2 and JAK3 kinase.
The general procedures of the assay are given as follows: first, the TF-1 cells (purchased from ATCC, Catalog number: CRL 2003) were seeded in a 96-well cell culture plate at a suitable cell concentration (8000 cells/mL medium), and 10 ng/mL IL-4 (Invitrogen, Catalog Number: PHC0044) were added to each well. Then 10× serial concentration gradient of test compounds solutions (10000, 1000, 100, 10, 1 and 0.1 nM) were prepared, and then the 10× compound solutions prepared above were added to the 96-well cell culture plate containing IL-4. After the cell plates were cultured continuously for 72 hours, the activity of the test compounds for inhibiting the cell proliferation was determined by using a Cell Counting Kit-8 (purchased from Dojindo, Catalog Number: CK04). IC50 values were calculated from the data of the inhibition rates at various concentrations of the test compounds.
as §1

[2] = Pharmacokinetics assay in rats, intragastric administration, plasma by LC/MS/MS; assay type: in vivo, Sprague-Dawley (SD) rats; details: both sexes, Sprague-Dawley, rat, plasma, po, SD rats, 10 mg/kg; for Vd/F: read-out: Apparent Distribution Volume Vz/F; for AUC: read-out: Area Under Curve AUC; for CL/F: read-out: Clearance CL/F; for half-life: read-out: Half-Life t½ (converted); for Cmax: read-out: Plasma Conc. Cmax
In short: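 Fasted SD rats of both sexes dosed intragastrically at 10.0 mg/kg as a 1.0 mg/mL DMSO suspension; fed 2 h post-dose. Plasma sampled at various time points, protein-precipitated with methanol plus internal standard, and analyzed by LC-MS/MS.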

JAK2 kinase, sequence (O60674 whole entry): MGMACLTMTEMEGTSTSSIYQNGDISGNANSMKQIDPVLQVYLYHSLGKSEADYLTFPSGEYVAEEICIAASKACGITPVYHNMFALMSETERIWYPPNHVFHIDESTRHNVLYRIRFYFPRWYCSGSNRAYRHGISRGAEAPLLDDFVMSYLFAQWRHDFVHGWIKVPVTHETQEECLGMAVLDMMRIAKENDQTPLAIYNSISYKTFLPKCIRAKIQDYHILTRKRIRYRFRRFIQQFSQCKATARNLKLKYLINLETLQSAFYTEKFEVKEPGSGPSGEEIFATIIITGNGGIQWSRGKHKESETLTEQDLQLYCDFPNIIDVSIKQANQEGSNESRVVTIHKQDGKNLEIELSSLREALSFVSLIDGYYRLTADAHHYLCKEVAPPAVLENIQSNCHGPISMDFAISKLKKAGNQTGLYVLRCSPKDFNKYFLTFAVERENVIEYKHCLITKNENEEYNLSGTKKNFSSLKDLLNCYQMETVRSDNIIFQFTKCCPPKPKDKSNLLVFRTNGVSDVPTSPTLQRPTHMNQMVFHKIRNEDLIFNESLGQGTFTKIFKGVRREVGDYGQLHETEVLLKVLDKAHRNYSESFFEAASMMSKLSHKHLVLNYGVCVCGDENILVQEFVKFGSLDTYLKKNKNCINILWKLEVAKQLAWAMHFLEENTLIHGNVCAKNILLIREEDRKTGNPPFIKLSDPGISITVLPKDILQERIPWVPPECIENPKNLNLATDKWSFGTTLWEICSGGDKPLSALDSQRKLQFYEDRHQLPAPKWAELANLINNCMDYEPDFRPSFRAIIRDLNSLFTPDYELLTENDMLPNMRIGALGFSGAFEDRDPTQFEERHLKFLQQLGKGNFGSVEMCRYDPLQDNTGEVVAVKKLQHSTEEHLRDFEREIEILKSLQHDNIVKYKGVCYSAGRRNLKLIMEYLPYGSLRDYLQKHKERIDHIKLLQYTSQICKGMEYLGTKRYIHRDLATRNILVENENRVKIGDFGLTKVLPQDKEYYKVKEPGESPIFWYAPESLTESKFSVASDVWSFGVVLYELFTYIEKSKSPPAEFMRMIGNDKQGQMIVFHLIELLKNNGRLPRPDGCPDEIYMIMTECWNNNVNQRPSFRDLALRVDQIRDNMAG
JAK1 kinase, sequence (P23458 whole entry): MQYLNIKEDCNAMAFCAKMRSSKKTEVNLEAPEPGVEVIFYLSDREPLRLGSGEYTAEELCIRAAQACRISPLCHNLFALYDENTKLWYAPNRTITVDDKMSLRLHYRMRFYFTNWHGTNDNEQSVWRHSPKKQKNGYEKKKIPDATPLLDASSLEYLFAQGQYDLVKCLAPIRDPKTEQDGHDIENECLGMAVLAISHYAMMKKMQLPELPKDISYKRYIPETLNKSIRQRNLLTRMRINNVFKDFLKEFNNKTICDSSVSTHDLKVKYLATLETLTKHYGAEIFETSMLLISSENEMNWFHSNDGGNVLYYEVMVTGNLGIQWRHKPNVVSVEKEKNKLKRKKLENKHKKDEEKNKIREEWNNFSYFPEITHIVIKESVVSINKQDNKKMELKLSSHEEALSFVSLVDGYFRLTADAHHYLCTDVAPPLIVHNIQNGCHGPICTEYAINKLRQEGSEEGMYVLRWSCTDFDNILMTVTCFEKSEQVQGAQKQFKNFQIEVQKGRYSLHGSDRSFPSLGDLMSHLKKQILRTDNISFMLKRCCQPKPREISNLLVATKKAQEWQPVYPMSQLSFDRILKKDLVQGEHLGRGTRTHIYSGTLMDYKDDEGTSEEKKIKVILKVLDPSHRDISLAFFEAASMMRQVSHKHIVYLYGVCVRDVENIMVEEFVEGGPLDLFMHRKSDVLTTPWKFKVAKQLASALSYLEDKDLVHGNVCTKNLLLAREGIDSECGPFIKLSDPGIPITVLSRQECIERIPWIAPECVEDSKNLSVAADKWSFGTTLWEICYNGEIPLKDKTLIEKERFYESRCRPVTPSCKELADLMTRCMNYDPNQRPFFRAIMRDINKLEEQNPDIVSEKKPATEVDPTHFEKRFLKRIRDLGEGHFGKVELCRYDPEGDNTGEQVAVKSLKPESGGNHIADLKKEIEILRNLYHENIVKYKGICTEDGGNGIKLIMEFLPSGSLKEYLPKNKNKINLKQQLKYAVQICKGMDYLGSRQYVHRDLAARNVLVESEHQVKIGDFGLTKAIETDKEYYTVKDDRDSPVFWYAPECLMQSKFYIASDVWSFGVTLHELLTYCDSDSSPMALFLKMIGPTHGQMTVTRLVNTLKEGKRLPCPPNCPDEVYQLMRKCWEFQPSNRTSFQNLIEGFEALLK

IC50 ([1]; Homo sapiens)	SMILES	IC50 (T cells)	IC50 (JAK1 kinase)	IC50 (JAK2 kinase)	IC50 [1]	Vd/F [2]	AUC [2]	CL/F [2]	half-life [2]	Cmax [2]	IC50 ([1]; Homo sapiens, TF-1, 72 h)
–	CN(c1ncnc2[nH]ccc12)[C@@H]1C[C@H]2CN(C(=O)CO)C[C@@]2(C)C1 (racemic) [Example 14, 2-hydroxy-1-((3aS,5R,6aR/3aS,5R,6aR)-3a-methyl-5-(methyl(7H-pyrrolo[2,3-d]pyrimidin-4-yl)amino)hexahydrocyclopenta[c]pyrrol-2(1H)-yl)ethanone]	712 nM	30 nM	–	–	–	–	–	–	–	–
–	CN(c1ncnc2[nH]ccc12)[C@H]1C[C@H]2CNC(=O)C[C@H]2C1 [Example 40, (4aR,6R,7aR)-6-(Methyl(7H-pyrrolo[2,3-d]pyrimidin-4-yl)amino) hexahydro-1H-cyclopenta[c]pyridin-3(2H)-one]	–	–	23 nM	399 nM	6.99 ± 3.39 L/kg	5230 ± 1170 ng·h/mL	33.2 ± 7.7 mL/min/kg	2.72 ± 1.82 h	1520 ± 317 ng/mL	–
152 nM	CN(c1ncnc2[nH]ccc12)[C@H]1C[C@@H]2CN(C(=O)[C@H](O)C(F)(F)F)C[C@@H]2C1 [Example 94, (S)-3,3,3-trifluoro-2-hydroxy-1-((3aR,5R,6aS)-5-(methyl(7H-pyrrolo[2,3-d]pyrimidin-4-yl)amino)hexahydrocyclopenta[c]pyrrol-2(1H)-yl)propan-1-one]	127 nM	–	–	–	–	–	–	–	–	–
–	CN(c1ncnc2[nH]ccc12)[C@H]1C[C@H]2CNC(=O)C[C@H]2C1 [Example 147, (4aR,6R,7aR)-6-(methyl(7H-pyrrolo[2,3-d]pyrimidin-4-yl)amino)hexahydro-1H-cyclopenta[c]pyridin-3(2H)-one]	–	–	5 nM	15 nM	–	–	–	–	–	–
–	CN(c1ncnc2[nH]ccc12)[C@@H]1CC2CNC(=O)CC2C1 (stereo partly drawn) [Example 148, (6S)-6-(methyl(7H-pyrrolo[2,3-d]pyrimidin-4-yl)amino)hexahydro-1H-cyclopenta[c]pyridin-3(2H)-one]	–	–	23 nM	–	6.99 ± 3.39 L/kg	5230 ± 1170 ng·h/mL	33.2 ± 7.7 mL/min/kg	2.72 ± 1.82 h	1520 ± 317 ng/mL	399 nM

Source: US9527851B2, “Pyrrole six-membered heteroaryl ring derivative, preparation method thereof, and medicinal uses thereof” (Jiangsu Hengrui Medicine Co., Ltd., priority 2011, dated 2016)
